Legend:
CYPIR = test: Example I postemergence foliar-applied, greenhouse, direct seeded rice weeds; assay type: in vivo, Cyperus iria L.
Description: Seeds or nutlets of the desired test plant species were planted in a soil matrix prepared by mixing a loam or sandy loam soil (e.g., 28.6 percent silt, 18.8 percent clay, and 52.6 percent sand, with a pH of about 5.8 and an organic matter content of about 1.8 percent) and calcareous grit in an 80 to 20 ratio. The soil matrix was contained in plastic pots with a volume of 1 quart and a surface area of 83.6 square centimeters (cm^2). When required to ensure good germination and healthy plants, a fungicide treatment and/or other chemical or physical treatment was applied. The plants were grown for 8-22 days in a greenhouse with an approximate 14 hr. photoperiod which was maintained at about 29° C. during the day and 26° C. during the night. Nutrients (Peters Excel® 15-5-15 5-Ca 2-Mg and iron chelate) were applied in the irrigation solution as needed and water was added on a regular basis. Supplemental lighting was provided with overhead metal halide 1000-Watt lamps as necessary. The plants were employed for testing when they reached the first through fourth true leaf stage.
Treatments consisted of the acid or esters of 4-amino-3-chloro-5-fluoro-6-(4-chloro-2-fluoro-3-methoxy-phenyl)pyridine-2-carboxylic acid (Compound A), each formulated as an SC (suspension concentrate), and various herbicidal components alone and in combination.
Other herbicidal components were applied on an acid equivalent (ae) or active ingredient (ai) basis and included acetyl coA carboxylase (ACCase)-inhibiting herbicides (cyclohexanedione and aryloxyphenoxypropionate chemical classes) cyhalofop-butyl formulated as Clincher® SF (285 gr ai/L EC), diclofop-methyl formulated as Hoelon® 3EC, fenoxaprop-p-ethyl+isoxadifen-ethyl formulated as RiceStar® HT (0.58 lb./gal EC), fenoxaprop-p-ethyl+mefenpyr diethyl formulated as Puma® IEC, metamifop formulated as Metamifop EC, haloxyfop-methyl formulated as Gallant Super®, fluazifop-p-butyl formulated as Fusilade® DX, quizalofop-p-ethyl formulated as Assure® II, profoxydim formulated as Aura® 20EC, clethodim applied as Intensity®, sethoxydim formulated as Poast®, and tralkoxydim formulated as Achieve®.
Treatment requirements were calculated based upon the rates being tested, the concentration of active ingredient or acid equivalent in the formulation, and a 12 mL application volume at a rate of 187 L/ha.
For treatments comprised of formulated compounds, measured amounts of compounds were placed individually in 25 mL glass vials and diluted in a volume of 1.25% (v/v) Agri-Dex® crop oil concentrated to obtain 12× stock solutions. […] Application solutions were prepared by adding an appropriate amount of each stock solution (e.g., 1 mL) and diluted to the appropriate final concentrations with the addition of 10 mL of an aqueous mixture of 1.25% (v/v) crop oil concentrate so that the final spray solutions contained 1.25+/−0.05% (v/v) crop oil concentrate.
All stock solutions and applications solutions were visually inspected for compound compatibility prior to application. Spray solutions were applied to the plant material with an overhead Mandel track sprayer equipped with a 8002E nozzles calibrated to deliver 187 L/ha over an application area of 0.503 m^2 at a spray height of 18 to 20 inches (46 to 50 cm) above average plant canopy height. Control plants were sprayed in the same manner with the solvent blank.
(§1) The treated plants and control plants were placed in a greenhouse as described above and watered by sub-irrigation to prevent wash-off of the test compounds. After approximately 3 weeks, the condition of the test plants as compared with that of the untreated plants was determined visually and scored on a scale of 0 to 100 percent where 0 corresponds to no injury or growth inhibition and 100 corresponds to complete kill. […]

AVEFA = test: Example IV postemergence foliar-applied, greenhouse, cereal crops weeds; assay type: in vivo, Avena fatua L.
Method: (§2) Seeds of the desired test plant species were planted in Sun Gro MetroMix® 306 planting mixture, which typically has a pH of 6.0 to 6.8 and an organic matter content of about 30 percent, in plastic pots with a surface area of 103.2 square centimeters (cm^2). When required to ensure good germination and healthy plants, a fungicide treatment and/or other chemical or physical treatment was applied. The plants were grown for 7-36 days in a greenhouse with an approximate 14 hour photoperiod which was maintained at about 18° C. during the day and about 17° C. during the night. Nutrients and water were added on a regular basis and supplemental lighting was provided with overhead metal halide 1000-Watt lamps as necessary. The plants were employed for testing when they reached the second or third true leaf stage.
(§3) Treatments consisted of the benzyl ester of 4-amino-3-chloro-5-fluoro-6-(4-chloro-2-fluoro-3-methoxy-phenyl)pyridine-2-carboxylic acid (Compound A), formulated as an SC, a second cereal herbicide alone and then both in combination.
(§4) Other herbicidal components were applied on an active ingredient basis and included acetyl-CoA carboxylase (ACCase)-inhibiting herbicides clodinafop-propargyl, fenoxaprop-P-ethyl, pinoxaden and tralkoxydim.
(§5) Measured aliquots of benzyl ester of 4-amino-3-chloro-5-fluoro-6-(4-chloro-2-fluoro-3-methoxy-phenyl)pyridine-2-carboxylic acid (Compound A) were placed in 25 milliliter (mL) glass vials and diluted in a volume of 1.25% (v/v) Agri-Dex® crop oil concentrate to obtain stock solutions. Compound requirements are based upon a 12 mL application volume at a rate of 187 liters per hectare (L/ha). Spray solutions of the second cereal herbicide and experimental compound mixtures were prepared by adding the stock solutions to the appropriate amount of dilution solution to form 12 mL spray solution with active ingredients in two- and three-way combinations. Formulated compounds were applied to the plant material with an overhead Mandel track sprayer equipped with an 8002E nozzle calibrated to deliver 187 L/ha over an application area of 0.503 square meters (m^2) at a spray height of 18 inches (46 cm) above average plant canopy. Control plants were sprayed in the same manner with the solvent blank.
as §1, with “20-22 days,” for “approximately 3 weeks,”, “control” for “untreated”, “injury” for “injury or growth inhibition”

KCHSC = test: as above; assay type: in vivo, Kochia scoparia (L.) Schrad.
Method: as §2, with “When required to ensure good germination and healthy plants, a fungicide treatment and/or other chemical or physical treatment was applied.” left out
as §3, §4
as §5, with “Spray solutions of the second cereal herbicide and experimental compound mixtures were prepared by adding the stock solutions to the appropriate amount of dilution solution to form 12 mL spray solution with active ingredients in two- and three-way combinations.” left out
(§6) The treated plants and control plants were placed in a greenhouse as described above and watered by sub-irrigation to prevent wash-off of the test compounds. After 20-22 days, the condition of the test plants as compared with that of the control plants was determined visually and scored on a scale of 0 to 100 percent where 0 corresponds to no injury and 100 corresponds to complete kill.
(§7) Colby's equation was used to determine the herbicidal effects expected from the mixtures (Colby, S. R. 1967. Calculation of the synergistic and antagonistic response of herbicide combinations. Weeds 15:20-22.).
(§8) The following equation was used to calculate the expected activity of mixtures containing two active ingredients, A and B: Expected=A+B−(A×B/100)

LOLMU = test: as above; assay type: in vivo, Lolium multiflorum Lam.
Method: as §2, §3, §4, §5, §6, §7, §8

## CCO/N=C(/CC)C1=C(O)CC(c2c(C)cc(C)cc2C)CC1=O (centres unmarked) [Tralkoxydim, 2-[1-(ethoxyimino)propyl]-3-hydroxy-5-(2,4,6-trimethylphenyl)-2-cyclohexen-1-one]
CYPIR; 100 gai/ha
  Visual Weed Control (%) - 22 DAA CYPIR Obs: 0%
CYPIR; 200 gai/ha
  Visual Weed Control (%) - 22 DAA CYPIR Obs: 0%
AVEFA; Tralkoxydim 50 gai/ha
  Visual Weed Control (%) - 21 DAA AVEFA Obs: 78%
AVEFA; Tralkoxydim 100 gai/ha
  Visual Weed Control (%) - 21 DAA AVEFA Obs: 99%
KCHSC; Tralkoxydim 50 gai/ha
  Visual Weed Control (%) - 21 DAA KCHSC Obs: 10%
KCHSC; Tralkoxydim 100 gai/ha
  Visual Weed Control (%) - 21 DAA KCHSC Obs: 0%
LOLMU; Tralkoxydim 50 gai/ha
  Visual Weed Control (%) - 21 DAA LOLMU Obs: 86%
LOLMU; Tralkoxydim 100 gai/ha
  Visual Weed Control (%) - 21 DAA LOLMU Obs: 96%

Reference: patent US9232796B2, “Herbicidal compositions comprising 4-amino-3-chloro-5-fluoro-6-(4-chloro-2-fluoro-3-methoxyphenyl) pyridine-2-carboxylic acid or a derivative thereof and acetyl-CoA carboxylase (ACCase) inhibitors” (DOW AGROSCIENCES LLC, priority 2012, dated 2016)
